Assay results reported in publication PMC2747684, “Sustained antiproliferative mechanisms by RB24, a targeted precursor of multiple inhibitors of epidermal growth factor receptor and a DNA alkylating agent in the A431 epidermal carcinoma of the vulva cell line” (British Journal of Cancer, 2004).

Tests used:
[1] = biological target: T1, epidermal growth factor receptor (EGFR) (Homo sapiens, UniProt P00533)
[2] = biological target: T1, epidermal growth factor receptor (EGFR); test: EGF-induced EGFR autophosphorylation in A431 cells (Western blot), with washout reversibility assay; assay type: cell-based

T1 sequence (P00533 25-1210): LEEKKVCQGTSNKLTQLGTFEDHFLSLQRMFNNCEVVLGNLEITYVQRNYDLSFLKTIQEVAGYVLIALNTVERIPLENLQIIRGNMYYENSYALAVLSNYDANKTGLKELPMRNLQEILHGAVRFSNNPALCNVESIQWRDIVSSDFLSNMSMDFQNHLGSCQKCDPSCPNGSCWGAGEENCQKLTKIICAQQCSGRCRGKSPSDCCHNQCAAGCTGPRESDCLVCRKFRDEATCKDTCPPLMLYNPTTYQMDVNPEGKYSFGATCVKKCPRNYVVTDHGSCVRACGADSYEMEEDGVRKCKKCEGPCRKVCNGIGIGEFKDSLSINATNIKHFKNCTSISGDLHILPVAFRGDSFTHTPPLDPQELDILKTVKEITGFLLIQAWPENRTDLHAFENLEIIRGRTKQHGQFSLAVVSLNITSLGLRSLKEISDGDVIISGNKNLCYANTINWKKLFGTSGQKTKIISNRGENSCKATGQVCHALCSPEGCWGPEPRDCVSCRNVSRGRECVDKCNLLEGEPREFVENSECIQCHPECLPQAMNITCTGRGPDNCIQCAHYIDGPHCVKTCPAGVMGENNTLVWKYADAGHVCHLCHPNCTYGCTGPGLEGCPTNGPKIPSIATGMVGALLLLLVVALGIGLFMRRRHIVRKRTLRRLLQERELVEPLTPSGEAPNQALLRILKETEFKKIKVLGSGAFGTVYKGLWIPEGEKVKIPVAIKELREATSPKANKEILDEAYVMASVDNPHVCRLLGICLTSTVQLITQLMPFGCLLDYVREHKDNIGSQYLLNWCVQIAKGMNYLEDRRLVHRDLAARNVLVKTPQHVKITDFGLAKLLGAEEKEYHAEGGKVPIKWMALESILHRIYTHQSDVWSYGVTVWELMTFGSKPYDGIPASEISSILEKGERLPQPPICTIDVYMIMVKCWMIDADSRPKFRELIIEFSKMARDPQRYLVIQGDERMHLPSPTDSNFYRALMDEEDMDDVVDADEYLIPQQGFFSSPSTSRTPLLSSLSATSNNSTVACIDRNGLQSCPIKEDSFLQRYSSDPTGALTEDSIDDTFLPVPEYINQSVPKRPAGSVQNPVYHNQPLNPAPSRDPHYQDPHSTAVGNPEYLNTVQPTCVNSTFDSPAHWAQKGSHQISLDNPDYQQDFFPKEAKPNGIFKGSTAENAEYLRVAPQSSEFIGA

Nc1ccc2ncnc(Nc3cccc(Br)c3)c2c1 [RB10]
EGFR autophosphorylation in A431 cells at 30 μM, before and after washout (Weste) [1]: the naked inhibitor, RB10, was shown to have completely reversible inhibition of EGFR autophosphorylation

CN(CO)/N=N/c1ccc2ncnc(Nc3cccc(Br)c3)c2c1 [RB14]
EGFR autophosphorylation in A431 cells at 30 μM, before and after washout (Weste) [1]: irreversible inhibition was observed in cells exposed to the daughter molecules, RB14 and ZR08

CC(=O)OCN(C)/N=N/c1ccc2ncnc(Nc3cccc(Br)c3)c2c1 [RB24]
IC50 [2]: ~2000 nM
